# Measurements from article PMC11341980, “Dual TTK/PLK1 inhibition has potent anticancer activity in TNBC as monotherapy and in combination” (Frontiers in Oncology, 2024).
# Marks after values point to notes of the source that are not given here.
# Key:
# [1] = test system: SK-OV-3 ovarian cell-derived xenograft; assay: SK-OV-3 xenograft combination study with carboplatin; conditions: carboplatin 60 mg/kg, QW, IV alone
# Description: (§1) Animal studies were performed by Charles-River Laboratories (Wilmington, Massachusetts, USA; MDA-MB-231 xenograft experiments) or Crown Biosciences Inc, (Taicang, China; SK-OV-3 xenograft and TNBC PDX screening experiments). All studies were performed in adherence with local ethical rules.
# 5x10^6 MDA-MB-231 cells were injected subcutaneously (s.c.) in the flank of NCr nude mice (n=8-15/group for efficacy experiments, n=2-3/group for tumor pharmacodynamic evaluation), 1x10^7 SK-OV-3 cells were injected s.c. in the flank of Balb/c nude mice (n=8/group) and specific PDX tumor fragments (3x3x3 mm^3) were inoculated s.c. in the flank of Balb/c nude mice or NOD/SCID mice (n=4-5/group for efficacy screening and tumor pharmacodynamic experiments, n=8/group for combination experiments). Mice were randomly grouped based on a mean tumor volume (TV) of 100-200 mm^3. For dedicated pharmacodynamic studies, treatment began with TVs of ~400 mm^3. Mice were culled when individual tumors exceeded 1500 mm^3 or if the body-weight loss (BWL) was >15% for 3 consecutive days or reached 20%. Dosing holidays were given to allow recovery for BWL >10%. When the endpoint was reached, mice were culled and plasma and tissue samples obtained. Samples were snap frozen and stored at -80 °C. In some cases, tumors were formalin-fixed and paraffin-embedded (FFPE) following standard procedures. […]
# BR1282 TNBC PDX [2] = assay: BR1282 PDX combination with carboplatin; format: in vivo, mice; conditions: carboplatin 60 mg/kg, IV, QW
# Description: Samples were snap frozen and stored at -80 °C. […] Carboplatin was prepared in 5% glucose in pure water.
# HT29 cells [3] = assay: Cell growth assay, GI50s used for SAC analyses; format: cell-based; conditions: Homo sapiens, HT-29; 120 h cell growth assay
# Description: Cell lines were seeded in appropriate culture medium into 96-well plates and 9 serial compound dilutions (0.004 – 1 μM) were added 24 h later for 120 h. Residual cells were stained with crystal violet or YO-PRO (Molecular Probes, #Y-3603). GI50 values were calculated by fitting the data to a sigmoidal dose–response model with a variable slope using GraphPad Prism software after subtraction of the starting control signal.
# KT-associated BubR1 = assay: Immunofluorescence of BubR1 at kinetochores in HT29 cells; format: cell-based; conditions: nocodazole-blocked mitotic HT29 cells, 1 hour, GI50 concentration
# Description: Immunoblotting, SAC co-immunoprecipitation assays and immunofluorescence microscopy were performed using standard procedures as outlined in the Supplementary Information .
# Cells were seeded on 13-mm glass coverslips in full medium and left to adhere O/N. After the appropriate treatments, cells were fixed with ice-cold 100% methanol for 5 min at -20°C and then rehydrated in PBS for 10 min. Coverslips were blocked for 30 min with 3% BSA (w/v) in PBS (BP) and then incubated with a 1:100 or 1:1000 dilution of BubR1 or CENP-C primary antibodies in BP, respectively, for 1 h in a moist environment. […] Images were projected (maximum intensity projection) using the NIS Elements AR software (Nikon) and quantification was performed using the General Analysis 2 tool. The quantification process comprised the following steps: selection of mitotic cells via intensity measurement of a threshold DAPI signal; generation of a kinetochore mask based on the intensity of bright spots (CENPC signal) inside the selected nuclei; generation of a tertiary mask for the BubR1 signal at kinetochores and BubR1 background measurements in the selected nuclei; export of reference images and signal intensities per cell.
# MDA-MB-231 xenograft = test system: MDA-MB-231 xenograft; design: method as in PMID 28270606; conditions: daily dosing, MDA-MB-231 xenografted mice; cited from earlier work
# BR1282 TNBC PDX [4] = conditions: paclitaxel 15 mg/kg, QW, IV alone
# Description: as §1
# 5x10^6 MDA-MB-231 cells were injected subcutaneously (s.c.) in the flank of NCr nude mice (n=8-15/group for efficacy experiments, n=2-3/group for tumor pharmacodynamic evaluation), 1x10^7 SK-OV-3 cells were injected s.c. in the flank of Balb/c nude mice (n=8/group) and specific PDX tumor fragments (3x3x3 mm^3) were inoculated s.c. in the flank of Balb/c nude mice or NOD/SCID mice (n=4-5/group for efficacy screening and tumor pharmacodynamic experiments, n=8/group for combination experiments). Mice were randomly grouped based on a mean tumor volume (TV) of 100-200 mm^3. For dedicated pharmacodynamic studies, treatment began with TVs of ~400 mm^3. Mice were culled when individual tumors exceeded 1500 mm^3 or if the body-weight loss (BWL) was >15% for 3 consecutive days or reached 20%. Dosing holidays were given to allow recovery for BWL >10%. When the endpoint was reached, mice were culled and plasma and tissue samples obtained. Samples were snap frozen and stored at -80 °C. In some cases, tumors were formalin-fixed and paraffin-embedded (FFPE) following standard procedures. […] Paclitaxel (6 mg/mL) was prepared using the clinical formulation (Cremophor-EL) and diluted in 0.9% saline just prior to use. Carboplatin was prepared in 5% glucose in pure water. Dosing and combination regimens for each specific experiment are outlined in the text.
# BW is presented as the % ΔBW and as the fractional-change (endpoint/treatment-start) for each group. As an assessment of synergy, the Clarke-Combination-Index (CCI) was applied ([32]) where a CCI of <-0.1 was considered synergistic, >+0.1 antagonistic, and in-between, additive.
# Paclitaxel (15 mg/kg) was administered IV QW to BR1282 PDX-bearing mice. […]
# HT29 cells [5] = assay: Flow cytometry cell cycle analysis; format: cell-based; conditions: nocodazole treatment
# Description: Cells were fixed in 70% high grade ethanol, washed in PBS, incubated in propidium iodide (PI) solution (50 μg/mL PI and 0.5 mg/mL RNAse A, Sigma-Aldrich, in PBS) for 30 min and analyzed using a BD FACSCanto II flow cytometer (BD Biosciences).
compound,measurement,setting,value
N.N.O=C([O-])C1(C(=O)[O-])CCC1.[Pt+2] [Carboplatin],Efficacy ΔT/C (day 23),[1],0.72
same,Tolerability ΔT/C (day 23),[1]; body weight,0.97
same,antitumor activity of monotherapy,BR1282 TNBC PDX [2],without activity
CN1CCN(c2ccc(OC(F)(F)F)c(Nc3ncc4c(n3)-c3c(c(C(N)=O)nn3CCO)CC4)c2)CC1 [onvansertib],GI50,HT29 cells [3],14 nM
same,reduction in KT-associated BubR1,KT-associated BubR1,minor effects
Cc1cc(-c2cnn3c(NC[C@H]4C[C@@](C)(O)C4)cc(Oc4cccnc4)nc23)ccc1C(=O)NC1CC1 [CFI-402257],GI50,HT29 cells [3],31 to 38 nM
same,maximum tumor growth inhibition,MDA-MB-231 xenograft,89%
same,reduction in KT-associated BubR1,KT-associated BubR1,Some reduction
CC(=O)O[C@H]1C(=O)[C@@]2(C)[C@H]([C@H](OC(=O)c3ccccc3)[C@]3(O)C[C@H](OC(=O)[C@H](O)[C@@H](NC(=O)c4ccccc4)c4ccccc4)C(C)=C1C3(C)C)[C@]1(OC(C)=O)CO[C@@H]1C[C@@H]2O [Paclitaxel],Efficacy ΔT/C (day 16),BR1282 TNBC PDX [4]; Study 1,0.24
same,Regressions (%) (end of treatment day),"BR1282 TNBC PDX [4]; Study 1, day 37, regressions in 1/8 mice",30 (37)* %
same,Efficacy ΔT/C (day 13),BR1282 TNBC PDX [4]; Study 2,0.48
COC(=O)Nc1nc2ccc(C(=O)c3cccs3)cc2[nH]1 [nocodazole],accumulation in G2/M of the cell cycle,HT29 cells [5],67%
